Test results as given in ChEMBL document CHEMBL4402594, “Interrogating the Lactate Dehydrogenase Tetramerization Site Using (Stapled) Peptides” (J Med Chem, 2020).
The source made the active and inactive calls. No cut-off for these calls is given here. Peptide text beside a SMILES is read from it.

Assays:
[1] = molecular target: L-lactate dehydrogenase A chain (Oryctolagus cuniculus) (UniProt P13491); assay: Binding affinity to rabbit LDH-5 assessed as acid-induced dimerization by measuring fluorescence recovery at 0.75 uM to 400 uM pH 7.6 by nano differential scanning fluorimetry analysis
[2] = molecular target: T1, L-lactate dehydrogenase A chain (Homo sapiens, UniProt P00338); assay: Binding affinity to truncated human N-terminal His6-tagged LDH-5 expressed in Escherichia coli Rosetta (DE3) assessed as induction of thermal destabilization by measuring melting temperature at 400 uM by nano differential scanning fluorimetry analysis
[3] = molecular target: T2, L-lactate dehydrogenase B chain (Homo sapiens, UniProt P07195); assay: Binding affinity to recombinant full length human His-tagged LDH-1 (1 to 322 residues) expressed in Escherichia coli assessed as induction of thermal destabilization by measuring change in melting temperature at 400 uM by nano differential scanning fluorimetry analysis
Target sequence in this assay (P07195 2-334 limits assumed): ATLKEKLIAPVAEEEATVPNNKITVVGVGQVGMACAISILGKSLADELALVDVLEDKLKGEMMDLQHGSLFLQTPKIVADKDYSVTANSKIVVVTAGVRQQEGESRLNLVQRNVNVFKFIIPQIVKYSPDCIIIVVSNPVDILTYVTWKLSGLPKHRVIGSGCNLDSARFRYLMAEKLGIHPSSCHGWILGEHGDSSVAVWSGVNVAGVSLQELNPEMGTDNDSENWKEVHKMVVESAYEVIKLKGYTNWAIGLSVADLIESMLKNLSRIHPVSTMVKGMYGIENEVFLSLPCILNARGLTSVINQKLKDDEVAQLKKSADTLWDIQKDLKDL

[4] = molecular target: T2, L-lactate dehydrogenase B chain; assay: Binding affinity to recombinant full length human His-tagged LDH-1 (1 to 322 residues) expressed in Escherichia coli assessed as induction of thermal destabilization at 400 uM by nano differential scanning fluorimetry analysis
Target sequence in this assay (P07195 2-334 limits assumed): as above

[5] = molecular target: T1, L-lactate dehydrogenase A chain; assay: Binding affinity to human N-terminal His6-tagged LDH-5 expressed in Escherichia coli Rosetta (DE3) assessed as induction of thermal destabilization at 400 uM by nano differential scanning fluorimetry analysis
[6] = molecular target: T1, L-lactate dehydrogenase A chain; assay: Binding affinity to truncated N-terminal His6-tagged human LDH-5 expressed in Escherichia coli Rosetta (DE3) assessed as induction of protein disruption by interacting with tetramerization site by Red-NHS fluorescence dye based microscale thermophoresis analysis
[7] = molecular target: T1, L-lactate dehydrogenase A chain; assay: Binding affinity to human N-terminal His6-tagged human LDH-5 expressed in Escherichia coli Rosetta (DE3) assessed as induction of protein disruption by interacting with tetramerization site by Red-NHS fluorescence dye based microscale thermophoresis analysis
[8] = molecular target: T1, L-lactate dehydrogenase A chain; assay: Binding affinity to human N-terminal His6-tagged LDH-5 expressed in Escherichia coli Rosetta (DE3) assessed as induction of thermal destabilization by measuring melting temperature at 400 uM by nano differential scanning fluorimetry analysis (reference value: 66 degree C)
[9] = molecular target: T1, L-lactate dehydrogenase A chain; assay: Binding affinity to human N-terminal His6-tagged LDH-5 expressed in Escherichia coli Rosetta (DE3) assessed as induction of thermal destabilization by measuring change in melting temperature at 400 uM by nano differential scanning fluorimetry analysis
[10] = molecular target: T2, L-lactate dehydrogenase B chain; assay: Inhibition of recombinant full length human His-tagged LDH-1 (1 to 322 residues) expressed in Escherichia coli at 800 uM by WaterLOGSY NMR analysis
Target sequence in this assay (P07195 whole entry, the tested form may be a part): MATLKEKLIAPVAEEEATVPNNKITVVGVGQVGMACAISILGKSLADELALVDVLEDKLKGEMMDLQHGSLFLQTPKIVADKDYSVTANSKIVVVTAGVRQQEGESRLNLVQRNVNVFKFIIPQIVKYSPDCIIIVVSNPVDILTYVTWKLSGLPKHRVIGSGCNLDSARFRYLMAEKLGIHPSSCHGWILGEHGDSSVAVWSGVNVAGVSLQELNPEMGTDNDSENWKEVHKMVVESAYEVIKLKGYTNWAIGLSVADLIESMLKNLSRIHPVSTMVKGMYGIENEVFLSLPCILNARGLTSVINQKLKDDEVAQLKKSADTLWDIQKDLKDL

[11] = molecular target: T2, L-lactate dehydrogenase B chain; assay: Binding affinity to full length human N-terminal His6-tagged LDH-H expressed in Escherichia coli Rosetta (DE3) assessed as saturation transfer stemming at 800 uM in sodium phosphate buffer at pH 7.6 by WaterLOGSY NMR analysis
Target sequence in this assay (P07195 2-334 limits assumed): as the sequence (P07195 2-334 limits assumed) above

[12] = molecular target: T2, L-lactate dehydrogenase B chain; assay: Binding affinity to full length human N-terminal His6-tagged LDH-H expressed in Escherichia coli Rosetta (DE3) assessed as saturation transfer at C-terminal residues at 800 uM phosphate buffer at pH 7 by 2D NMR-TOCSY analysis
Target sequence in this assay (P07195 2-334 limits assumed): as above

[13] = molecular target: T2, L-lactate dehydrogenase B chain; assay: Binding affinity to recombinant full length human His-tagged LDH-1 (1 to 322 residues) expressed in Escherichia coli by WaterLOGSY NMR analysis
Target sequence in this assay (P07195 whole entry, the tested form may be a part): as the sequence (P07195 whole entry, the tested form may be a part) above

[14] = molecular target: T2, L-lactate dehydrogenase B chain; assay: Binding affinity to recombinant full length human His-tagged LDH-1 (1 to 322 residues) expressed in Escherichia coli at 800 uM by WaterLOGSY NMR analysis
Target sequence in this assay (P07195 whole entry, the tested form may be a part): as above

[15] = molecular target: T2, L-lactate dehydrogenase B chain; assay: Binding affinity to full length human N-terminal His6-tagged LDH-H expressed in Escherichia coli Rosetta (DE3) assessed as saturation transfer at N-terminal residues at 800 uM phosphate buffer at pH 7 by 2D NMR-TOCSY analysis
Target sequence in this assay (P07195 2-334 limits assumed): as the sequence (P07195 2-334 limits assumed) above

[16] = molecular target: T2, L-lactate dehydrogenase B chain; assay: Binding affinity to full length human N-terminal His6-tagged LDH-H expressed in Escherichia coli Rosetta (DE3) measured after 5 mins by Red-NHS fluorescent dye based microscale thermophoresis analysis
Target sequence in this assay (P07195 whole entry, the tested form may be a part): as the sequence (P07195 whole entry, the tested form may be a part) above

## CC[C@H](C)[C@H](NC(=O)[C@H](CC(C)C)NC(=O)[C@H](CCCCN)NC(=O)[C@@H]1CSc2c(F)c(F)c(c(F)c2F)SC[C@H](N)C(=O)N[C@@H]([C@@H](C)O)C(=O)N[C@@H](CC(C)C)C(=O)N[C@@H](CCCCN)C(=O)N1)C(N)=O (HELM PEPTIDE1{C.T.L.K.C.K.L.I.[am]}|CHEM1{[Fc1c(F)c([*:2])c(F)c(F)c1[*:1]]}$PEPTIDE1,CHEM1,1:R3-1:R1|PEPTIDE1,CHEM1,5:R3-1:R2$$$V2.0)
[1]
  Activity: Active
[2]
  Activity: inactive
[3]
  ΔTm: -1.5 °C
[4]
  Activity: Active
[5]
  Activity: Active
[6]
  Activity: inactive
[7]
  EC50: 172 µM
[8]
  Tm: 61 °C
[9]
  ΔTm: -5 °C

## H-ATLKEKLIAPVAEEEATVP-NH2
[10]
  inhibition (INH): Not Active
[11]
  Activity: Active
[12]
  Activity: Active
[13]
  Activity: Not Active
[14]
  Activity: Not Active
[15]
  Activity: Active
[16]
  Kd: 1780 µM
